Data from US7338778B2, “Luminescent method for determining cell oxygen consumption” (Becton, Dickinson and Company, priority 1991, dated 2008).
≈ marks a conversion by molar mass, not a printed value. Each block holds one molecule with its values, some of them ahead of it.

How the values were obtained:
[1] = tested on: Pseudomonas aeruginosa (ATCC #10145); details: 1.5×10^8 CFU/ml, 37° C., times less than two hours
Procedure: A suspension containing about 3×10^8 CFU/ml, of Pseudomonas aeruginosa (ATCC #10145) in Broth A was prepared using an A-Just nephelometer. A total of 150 ul of the suspension was placed in each well of the indicator trays prepared as in Example 1; these suspensions were then diluted with solutions of phenol or copper sulfate (which are deleterious to microbial growth) to a final concentration of 1.5×10^8 CFU/ml. The trays were incubated at 37° C. and their fluorescence measured in a Fluoroskan II at 10 minute intervals.

HL60 cells [2] = assay: Cytotoxicity assay in oxygen sensor plates; assay type: cell-based; details: Homo sapiens, HL-60, HL60 cells, read-out: IC50 O2 Sensor
Procedure: Oxygen sensor plates were prepared by the general methods described herein. Falcon 1177 polystyrene 96 well U-bottom plates (BD Labware) were used for all experiments. The fluorescent dye Ru(DPP)3Cl2 was adsorbed to silica gel by rotary evaporation of ethanolic solutions of the dye with the silica gel. The adsorbed dye-silica and a moisture-cure clear silicone were mixed manually and immediately applied to plate wells with approximately 17 uL silicone per well. These were cured for 2-3 days in a controlled humidity incubator.
All data was obtained with a BMG Polarstar fluorimeter at 37° C. using the bottom plate reading configuration. The bandpass filters were 465 nm for excitation and 590 nm for emission. For the experiments with […]®, a Cytofluor 4000 fluorometer was used with a 485 nm excitation filter and a 580 nm emission filter. Data was read at selected time intervals. Normalized fluorescence data was generally obtained by dividing well values at selected time points by the same well's initial reading with only media or buffer present prior to adding cells.
Cells used for cytotoxicity and quantitation experiments (HL60, U937; ATCC) were grown in tissue culture media recommended by the supplier (RPMI; Gibco and ATCC, respectively). The media was supplemented with either 20% fetal bovine serum (Hyclone) for the HL60 cells or 10% FBS for the U937 cells, with the addition of penicillin, streptomycin and fungizone (Gibco) to prevent microbial contamination. Cells were maintained in a tissue culture incubator (37° C., 5% CO2, 95% humidity) during all experiments between readings.
HL60 cells (human promyelocytic leukemia cell line, ATCC #45500) were grown in tissue culture media recommended by the supplier (RPMI; Gibco), supplemented with 20% fetal bovine serum, heat inactivated at 50° C. for thirty minutes with the addition of penicillin, streptomycin and fungizone (Gibco) to prevent microbial contamination. Cells were maintained in tissue culture incubator (37° C., 5% CO2, 95% humidity) during all experiments. Fluorescence of the oxygen sensor was read on a Polarstar™ fluorometer (BMG), using 465 nm excitation and 590 nm emission filters.
100 uL of tissue culture media was aliquoted into the wells of the Oxygen sensor plate and plate was allowed to equilibrate in the tissue culture incubator for 1 hour prior to taking the initial reading. This reading was used to normalize all subsequent readings to account for well to well variability. Cells were resuspended in fresh media at 960,000 cells/mi. Serial 1:2 dilution of this stock was performed and 100 uL of each dilution was alliquoted across the length of the plate in replicates of 12 (rows B-H), with final cell/well number from 1,500 to 96,000. In row A, 100 uL of tissue culture media was alliquoted into the wells in lieu of cells (no-cells control). Fluorescence measurements were taken every 24 hours over 5 days. The actual number of cells present was counted with a hemocytometer by sampling the parallel well (same seeding cell number). Mean fluorescence from 5 wells per data point (n=5) was plotted against the counted cell number (FIG. 10). Error bars are standard deviation of the mean.
The experiment was performed as described in Example 18, with the following exceptions. Serial dilutions of vinblastine were prepared at twice the final concentration (100 nM to 0.1 nM) in tissue culture media.100 uL of the drug dilution in tissue culture media was aliquoted across the width of the plate in replicates of five, reserving one column for no-drug (media only) control. After an initial reading, a constant number of cells (200,000/well) in 100 uL media were added to each well of rows A-E of the oxygen sensor plate, reserving rows F-H for no-cells control. Fluorescence was read at the indicated times. Mean fluorescence from 5 wells per data point (n=5) was plotted against vinblastine concentration (FIG. 12).

HL60 cells [3] = assay: Cytotoxicity assay by MTT; assay type: cell-based; details: Homo sapiens, HL-60, HL60 cells, read-out: IC50 MTT
Procedure: In parallel with the oxygen sensor assays, MTT assays were performed using a Cell Titer Kit™ (Promega), as in Example 20, with the following exceptions. For each time point (corresponding to oxygen sensor assay time point), one flat-bottom 96 well microtiter plate (Falcon) was used. 50 uL of drug dilution in tissue culture media was used for initial reading and cells were suspended in 50 uL media, to the final volume of 100 uL. At indicated time points, 10 uL of MTT reagent was added per well for 1 hour, after which 100 uL of the stop/lysis buffer was added. Plates were sealed with Parafilm™ and cell lysis occurred overnight. Absorbance (570 nm corrected by absorbance at 750 nm) was read using a Thermomax Microplate Reader (Molecular Devices). Mean absorbance from 5 wells per data point, with standard deviation as error bars, was plotted against vinblastine concentration (FIG. 13).
These experiments was performed as described in Example 20, with the exception that appropriate dilutions of the above reagents were substituted for vinblastine: 0.01 nM to 10000 nM methotrexate, 0.00001 to 10 mM sodium azide, and 2 to 2000 uM SDS respectively.

E. coli (ATCC #25922) [4] = assay: Effect of antibiotics on E. coli, Ru(DPP)3Cl2 indicator tray (Example 8); assay type: cell-based; details: for susceptibility of E. coli by fluorescence counts: 4 hours; for Relative Fluorescence at 4 hrs.: 1×10^7 CFU/ml, 37° C.
Procedure: (§1) A 0.5 McFarland suspension of E. coli (ATCC #25922) in Broth A (see Example 1) was prepared using an A-Just nephelometer. […] The trays were incubated at 37° C. for 4 hours and their fluorescence measured in a Fluoroskan II fluorometer.
The fluorescent compound tris 4,7-diphenyl-1,10-phenanthroline ruthenium (II) chloride (Ru(DPP)3Cl2) was synthesized using the procedure of Watts and Crosby (J. Am.Chem. Soc. 93, 3184(1971)). A total of 3.6 mg of the compound was dissolved in 2.0 ml dimethyl sulfoxide (D-5879, Sigma Chemical, St. Louis, Mo.) and the resultant solution was then added slowly, with stirring, to 1300 ml silicone rubber forming solution (Water Based Emulsion #3-5024, Dow Corning, Midland, Mich.). A 35 microliter aliquot of the mixture was subsequently dispensed into each well of a 96 well, flat bottom, white microtiter tray (#011-010-7901, Dynatech, Chantilly, Va.), and the system was subsequently cured overnight in a low humidity (less than 25% RH), 60° C. incubator. After curing, the trays were washed by either soaking or by filling and emptying each well several times with each of the following reagents; a) absolute ethanol, b) 0.1 M phosphate buffer pH 7.2, c) hot distilled water (about 45° C.) and d) ambient temperature distilled water.

E. coli (ATCC #25922) [5] = assay: Effect of antibiotics on oxygen consumption of E. coli, Ru(BiPy)3Cl2 indicator tray (Example 9); assay type: cell-based; details: for susceptibility of E. coli by fluorescence counts: 4 hours; for Relative Fluorescence at 4 hrs.: 1×10^7 CFU/ml, 37° C.
Procedure: A 96 well Microtiter tray was produced essentially as in Example 1, except that tris-(2,2′ bipyridyl)-ruthenium (II) chloride hexahydrate (Aldrich Chemical Company, Milwaukee, Wis.) [Ru(BiPy)3Cl2] was substituted for Ru(DPP)3Cl2 in the silicone mixture. A second tray containing 9,10-diphenyl anthracene (DPA) was also prepared. All wells were charged with 150 ul of 1×10^7 CFU/ml E. coli (ATCC #25922) in broth. Table 3 lists the results at 0, 1, 2, 3, and 4 hours after addition of organisms.
as §1

E. coli (ATCC #25922) [6] = assay: Visual reading of indicator tray fluorescence without a fluorometer (Example 13); assay type: cell-based; details: E. coli #25922, 1×10^7 CFU/ml, 4 hours at 37° C., UV transilluminator
Procedure: (§2) The trays were incubated for 4 hours at 37° C. and subsequently placed on the stage of an ultraviolet transilluminator (#TX-365A, Spectronics Corp., Westbury, N.Y.) which served as an excitation source.

[7] = tested on: Ps. aeruginosa (BDMS Culture collection #N111); assay: as above; assay type: cell-based; details: 1×10^7 CFU/ml, 4 hours at 37° C., UV transilluminator
Procedure: as §2

[8] = tested on: Ps. aeruginosa (BDMS Culture collection #N111); assay: Overnight microdilution antimicrobial susceptibility test (reference MIC); assay type: cell-based; details: Pseudomonas aeruginosa
E. coli (ATCC #25922) [9] = assay: as above; assay type: cell-based; details: Escherichia coli, ATCC25922; E. coli #25922, overnight microdilution
E. coli (ATCC #25922) [10] = assay: Effect of antibiotics on oxygen consumption of E. coli, DPA indicator tray (Example 10); assay type: cell-based; details: for susceptibility of E. coli by fluorescence counts: 4 hours; for Relative Fluorescence at 4 hrs.: 1×10^7 CFU/ml, 37° C.

SMILES: O=S(=O)([O-])[O-].[Cu+2] [copper sulfate]
- concentration at which wells had no increase in fluorescence signal (absence of actively metabolizing organisms) [1]: greater than 500 mg/liter

SMILES: CN(Cc1cnc2nc(N)nc(N)c2n1)c1ccc(C(=O)N[C@@H](CCC(=O)O)C(=O)O)cc1 [Methotrexate, methotrexate]
- IC50 (HL60 cells [2]; 96 hours): 0.019 µM
- IC50 (HL60 cells [2]; 120 hours): 0.012 µM
- IC50 (HL60 cells [3]; 120 hours): 0.014 µM

- MIC Visual (lowest concentration of antibiotic to significantly lower the fluorescent emissions) (E. coli (ATCC #25922) [6]): 8 µg/mL
- MIC Visual (lowest concentration of antibiotic to significantly lower the fluorescent emissions) [7]: >64 µg/mL
- MIC [8]: > 64 µg/mL
- MIC (E. coli (ATCC #25922) [9]): 4 µg/mL (≈ 9.36 µM)
SMILES: CO[C@@]1(NC(=O)Cc2cccs2)C(=O)N2C(C(=O)O)=C(COC(N)=O)CS[C@@H]21 [Cefoxitin, cefoxitin]
- susceptibility of E. coli by fluorescence counts (E. coli (ATCC #25922) [4]; 0.5, 1, and 2 ug/ml): resistant
- susceptibility of E. coli by fluorescence counts (E. coli (ATCC #25922) [4]; 4 and 8 ug/ml): sensitive
- Relative Fluorescence at 4 hrs. (E. coli (ATCC #25922) [4]; antibiotic 0.5 ug/mL): 8181
- Relative Fluorescence at 4 hrs. (E. coli (ATCC #25922) [4]; antibiotic 1 ug/mL): 8270
- Relative Fluorescence at 4 hrs. (E. coli (ATCC #25922) [4]; antibiotic 2 ug/mL): 7120
- Relative Fluorescence at 4 hrs. (E. coli (ATCC #25922) [4]; antibiotic 4 ug/mL): 3692
- Relative Fluorescence at 4 hrs. (E. coli (ATCC #25922) [4]; antibiotic 8 ug/mL): 2974
- susceptibility of E. coli by fluorescence counts (E. coli (ATCC #25922) [5]; 0.5, 1, and 2 ug/ml): resistant
- susceptibility of E. coli by fluorescence counts (E. coli (ATCC #25922) [5]; 4 and 8 ug/ml): sensitive
- Relative Fluorescence at 4 hrs. (E. coli (ATCC #25922) [5]; antibiotic 0.5 ug/mL): 1171
- Relative Fluorescence at 4 hrs. (E. coli (ATCC #25922) [5]; antibiotic 1 ug/mL): 1491
- Relative Fluorescence at 4 hrs. (E. coli (ATCC #25922) [5]; antibiotic 2 ug/mL): 1338
- Relative Fluorescence at 4 hrs. (E. coli (ATCC #25922) [5]; antibiotic 4 ug/mL): 832
- Relative Fluorescence at 4 hrs. (E. coli (ATCC #25922) [5]; antibiotic 8 ug/mL): 559
- susceptibility of E. coli by fluorescence counts (E. coli (ATCC #25922) [10]; 0.5, 1, 2 ug/ml): resistant
- susceptibility of E. coli by fluorescence counts (E. coli (ATCC #25922) [10]; 4 and 8 ug/ml): sensitive
- Relative Fluorescence at 4 hrs. (E. coli (ATCC #25922) [10]; antibiotic 0.5 ug/mL): 192
- Relative Fluorescence at 4 hrs. (E. coli (ATCC #25922) [10]; antibiotic 1 ug/mL): 173
- Relative Fluorescence at 4 hrs. (E. coli (ATCC #25922) [10]; antibiotic 2 ug/mL): 164
- Relative Fluorescence at 4 hrs. (E. coli (ATCC #25922) [10]; antibiotic 4 ug/mL): 101
- Relative Fluorescence at 4 hrs. (E. coli (ATCC #25922) [10]; antibiotic 8 ug/mL): 95

SMILES: CCCCCCCCCCCCOS(=O)(=O)[O-].[Na+] [SDS, Sodium Dodecyl Sulfate]
- IC50 (HL60 cells [2]; 24 hours): 340 µM
- IC50 (HL60 cells [2]; 48 hours): 300 µM
- IC50 (HL60 cells [2]; 72 hours): 300 µM
- IC50 (HL60 cells [3]; 24 hours): 500 µM
- IC50 (HL60 cells [3]; 48 hours): 440 µM
- IC50 (HL60 cells [3]; 72 hours): 430 µM
